Reference: patent US20210078983A1, “COMPOSITIONS AND METHODS FOR THE TREATMENT OF CANCER” (Cellix Bio Private Limited, priority 2017, published 2021)
Several values for one entry are separate records, joined by “and”; a condition that tells them apart may be missing. Identical values can stand only once. Entries after “also recorded” stand apart in the source; their conditions may differ.

Assays:
[1] = test system: HCT116 human colon cancer xenograft; experiment: Anti-tumor activity in HCT116 xenograft in Foxn1 athymic nude mice (study CLBBI1); format: in vivo; conditions: for Percent Tumor Growth Inhibition (% TGI): 5 days/week
Source text: Evaluation of the Anti-Tumor Activity of CLX-155 [(2R,3R,4R,5R)-2-(5-fluoro-4-octanamido-2-oxopyrimidin-1(2H)-yl)-5-methyltetrahydrofuran-3,4-diyl diacetate] in Relation to Capecitabine in HCT116 Xenograft in Foxn1 Athymic Nude Mice Model Study Code: CLBBI1
The purpose of this study was to evaluate the anti-tumor activity of CLX-155 administered by oral gavage, once daily for 5 days/week (two days off) for three weeks in HCT116 human colon cancer xenograft bearing Foxn1 athymic nude mice. The anti-tumor activity of CLX-155 was compared with capecitabine.
(§1) Foxn1 athymic nude female mice (7-8 weeks) were implanted with human colon cancer cell line, HCT116 (5 million cells/site) subcutaneously in the dorsal right flank. The animals were randomized (N=10) into different treatment groups as vehicle control, CLX-155 (125, 250 and 500 mg/kg/day) or capecitabine (1000 mg/kg/day) based on the tumor volume, when the subcutaneous tumor reached a volume in the range of 70-170 mm3. The doses were selected based on the results of a 7-day repeated dose range finding toxicity study in Foxn1 nude mice.
(§2) The animals in the control group were dosed with the formulation used for CLX-155, which consisted of Capryol 90 (32.5% w/v), Polysorbate 80 (2.5% w/v) in Water (q.$) at the dose volume of 8 mL/kg. The Capecitabine formulation was prepared using 0.5% Hydroxypropyl methylcellulose (HPMC E 15) in 40 mM citrate buffer, pH 6.0. Treatment to animals was performed for three consecutive weeks (5 days/week dosing followed by 2 days off). The dose volume was 8 and 10 ml/kg body weight for CLX-155 and capecitabine, respectively. […] Tumor growth inhibition (TGI) was calculated based on the tumor volume on a given day as compared to that on day 1.

[2] = Mortality, clinical signs and body weight in the HCT116 xenograft study; format: in vivo; conditions: for mortality: N=10, deaths on day 14 and 22
Experimental: as §1, §2

CCCCCCCC(=O)Nc1nc(=O)n([C@@H]2O[C@H](C)[C@@H](OC(C)=O)[C@H]2OC(C)=O)cc1F [CLX-155, (2R,3R,4R,5R)-2-(5-fluoro-4-octanamido-2-oxopyrimidin-1(2H)-yl)-5-methyltetrahydrofuran-3,4-diyl diacetate]
Percent Tumor Growth Inhibition (% TGI) ([1]; 125 mg/kg/day oral gavage, day 3): 49.4% | Percent Tumor Growth Inhibition (% TGI) ([1]; 125 mg/kg/day oral gavage, day 5): 59.5% | Percent Tumor Growth Inhibition (% TGI) ([1]; 125 mg/kg/day oral gavage, day 8): 59.8% | Percent Tumor Growth Inhibition (% TGI) ([1]; 125 mg/kg/day oral gavage, day 10): 56.3% | Percent Tumor Growth Inhibition (% TGI) ([1]; 125 mg/kg/day oral gavage, day 12): 58.5% | Percent Tumor Growth Inhibition (% TGI) ([1]; 125 mg/kg/day oral gavage, day 15): 57.8% | Percent Tumor Growth Inhibition (% TGI) ([1]; 250 mg/kg/day oral gavage, day 3): 83.6% | Percent Tumor Growth Inhibition (% TGI) ([1]; 250 mg/kg/day oral gavage, day 5): 61.4% | Percent Tumor Growth Inhibition (% TGI) ([1]; 250 mg/kg/day oral gavage, day 8): 67.7% | Percent Tumor Growth Inhibition (% TGI) ([1]; 250 mg/kg/day oral gavage, day 10): 66.5% | Percent Tumor Growth Inhibition (% TGI) ([1]; 250 mg/kg/day oral gavage, day 12): 66.7% | Percent Tumor Growth Inhibition (% TGI) ([1]; 250 mg/kg/day oral gavage, day 15): 70.4% | Percent Tumor Growth Inhibition (% TGI) ([1]; 500 mg/kg/day oral gavage, day 3): 51.1% | Percent Tumor Growth Inhibition (% TGI) ([1]; 500 mg/kg/day oral gavage, day 5): 67.1% | Percent Tumor Growth Inhibition (% TGI) ([1]; 500 mg/kg/day oral gavage, day 8): 75.3% | Percent Tumor Growth Inhibition (% TGI) ([1]; 500 mg/kg/day oral gavage, day 10): 75.4% | Percent Tumor Growth Inhibition (% TGI) ([1]; 500 mg/kg/day oral gavage, day 12): 79.5% | Percent Tumor Growth Inhibition (% TGI) ([1]; 500 mg/kg/day oral gavage, day 15): 90.6% | complete tumor regressions / complete responders (CR) ([1]; 500 mg/kg/day, N=10): Two and 2/10 | TGI compared with the other drug (in words) ([1]; CLX-155 at 500 mg/kg/day): comparable to capecitabine at 1000 mg/kg/day | tumor growth inhibition as compared to the vehicle control (in words) ([1]; all dose levels tested): statistically significant, dose dependent tumor growth inhibition at all doses; also recorded: statistically significant, dose dependent tumor growth inhibition at all the dose levels tested; also recorded: dose-dependent inhibition of tumor growth

CCCCCOC(=O)Nc1nc(=O)n([C@@H]2O[C@H](C)[C@@H](O)[C@H]2O)cc1F [Capecitabine, reference compound]
CR or PR observed ([1]; 1000 mg/kg/day): no CR or PR observed | Percent Tumor Growth Inhibition (% TGI) ([1]; 1000 mg/kg/day, day 3): 27.3% | Percent Tumor Growth Inhibition (% TGI) ([1]; 1000 mg/kg/day, day 5): 46.2% | Percent Tumor Growth Inhibition (% TGI) ([1]; 1000 mg/kg/day, day 8): 68.0% | Percent Tumor Growth Inhibition (% TGI) ([1]; 1000 mg/kg/day, day 10): 75.4% | Percent Tumor Growth Inhibition (% TGI) ([1]; 1000 mg/kg/day, day 12): 80.9% | Percent Tumor Growth Inhibition (% TGI) ([1]; 1000 mg/kg/day, day 15): 87.7% | TGI compared with the other drug (in words) ([1]; Capecitabine at 1000 mg/kg/day): comparable to that observed at 500 mg/kg/day of CLX-155 | Mean % body weight reduction ([2]; 1000 mg/kg/day): −5.9% | clinical signs of toxicity ([2]; 1000 mg/kg/day): hunched back and scaly skin | mortality ([2]; 1000 mg/kg/day): Two | mortality ([2]; 1000 mg/kg/day, listed as capecitabine): 2/10 | relative toxicity based on mortality and clinical signs of toxicity ([2]; capecitabine 1000 mg/kg/day vs CLX-155 125-500 mg/kg/day): relatively more toxic than CLX-155
